Test results published in patent EP0433679A2, “Pharmaceutical compositions for inhibition of maillard's reaction” (Senju Pharmaceutical Co., Ltd., priority 1989, dated 1991).

Target: bovine serum albumine (Bos taurus, UniProt P02769)
Assay: Inhibition of furosine formation (non-enzymatic glycosylation of BSA by glucose, furosine determined by HPLC)
Conditions: 672 h, pH 7.3, read-out: Inhibition rate (%)
Protocol: The sample solutions were kept for 4 weeks at 37 °C, and the amount of furosine which was formed by non-enzymatic glycosylation was determined by HPLC according to the method of Schleicher et al. (J. Clin. Biochem., 19:81-87 (1981).] Thus, the sample solutions after reaction were dialyzed, and aliquots of 1 ml were lyophylized and then hydrolyzed by the addition of 1 ml of 6 N hydrochloric acid followed by heating at 100 °C for 20 hours. After removal of hydrochloric acid by evaporation, 1 ml of water was added to each sample, and the samples were subjected to filtration using a filter with the pore size of 0.45 µm. The filtrate was used as the sample for HPLC. ODS-120T (Toso) was used for the column and 7 mM phosphoric acid solution was used as the eluant. The absorbance peak whose ratio of peak area at 280 mm/254 mm was 3.9/1 was regarded as the peak corresponding to furosine.
Upon the area of the peak of furosine of each sample, the inhibition rate of furosine formation by the test compound was calculated as follows. Inhibition rate (%)=(c-d)+(c-n)×100 c; peak area of furosine of the control sample d; peak area of furosine of the test sample n; peak area of furosine of the normal sample

Sequence of bovine serum albumine (P02769 25-607): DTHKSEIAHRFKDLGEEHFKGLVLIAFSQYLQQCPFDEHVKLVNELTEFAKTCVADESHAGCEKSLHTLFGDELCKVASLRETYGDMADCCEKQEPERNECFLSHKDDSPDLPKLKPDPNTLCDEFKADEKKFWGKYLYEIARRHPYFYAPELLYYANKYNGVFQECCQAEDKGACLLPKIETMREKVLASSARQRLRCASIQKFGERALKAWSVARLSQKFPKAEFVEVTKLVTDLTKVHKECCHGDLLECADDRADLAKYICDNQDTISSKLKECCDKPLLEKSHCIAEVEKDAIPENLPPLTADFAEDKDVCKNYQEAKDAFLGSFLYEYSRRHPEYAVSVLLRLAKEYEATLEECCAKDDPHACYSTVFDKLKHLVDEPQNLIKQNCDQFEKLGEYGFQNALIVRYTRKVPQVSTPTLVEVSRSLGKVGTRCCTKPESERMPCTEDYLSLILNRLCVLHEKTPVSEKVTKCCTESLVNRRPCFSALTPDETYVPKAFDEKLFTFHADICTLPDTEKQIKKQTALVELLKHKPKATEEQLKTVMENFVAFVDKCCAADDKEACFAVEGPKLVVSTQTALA

SMILES	inhibition at 5000 µM [%]
Oc1ccc(O)c2c(O)cc(C(F)(F)F)nc12 [T-2]	79.9
O=C(O)c1cc(O)c2c(n1)C(=O)C=CC2=O [T-6]	76
O=C(O)c1cnc2c(c1O)C(=O)C=CC2=O [T-7]	79.9
N=C(N)NN [Aminoguanidine, aminoguanidine, reference compound]	7.5
Cc1cc(O)c2c(n1)C(=O)C=CC2=O [T-9]	99.5
O=C(O)c1cc(O)c2c(O)ccc(O)c2n1 [T-5]	78.9
O=C1C=CC(=O)c2c(O)cc(C(F)(F)F)nc21 [T-3]	73.4
O=c1ccc2[n+]([O-])c3ccc(O)cc3oc-2c1 [T-10, resazurin]	73.8
O=C(O)c1cc(O)c2c(n1)C(=O)C=C(O)C2=O [T-1]	77.8
CCOC(=O)c1cnc2c(c1O)C(=O)C=CC2=O [T-8]	96.9
COC(=O)c1cc(O)c2c(n1)C(=O)C=CC2=O [T-4]	92.5
